Here are results for one compound from the NIST ThermoML archive (doi:10.1021/je900381r).

For this data set the following is noted: Crystal; DTA.

Numbers after ± are expanded uncertainties.

Regarding `O=c1cc(-c2ccc(O)c(O)c2)oc2cc(O)cc(O)c12` [5,7,3',4'-tetrahydroxyflavone], the Normal melting temperature was 337.43 ± 1 °C.
